The subject of test [1] is Trichophyton mentagrophytes IFO 5810. The test is described as follows: In vitro antimicrobial activity on Trichophyton mentagrophytes. It is filed as cell-based. Set-up: key: A: Fungus is not observed at all with the naked eye.; B: Presence of fungus is slightly observed on shaking the test tube.; C: Fungus of about less than one-fourth that of the DMSO control group is observed with the naked eye.; Fungus of about less than half that of the DMSO control group is observed with the naked eye. Conditions: 10 (ppm); SGB, 27° C., 7 days. The method, then: 3-3 In vitro antimicrobial activity on Trichophyton mentagrophytes To Trichophyton mentagrophytes IFO 5810 precultured at 27° C. for 2 to 3 weeks on a Sabouraud's glucose agar (SGA) slant medium was added a sterilized physiological salt solution containing 0.1% (W/V) Tween 80. After conidia were made free from the solution, the solution was filtered through a sterilized two-sheet gauze to remove the mycelium mass. The number of the conidia in the resulting suspension was counted with a globulimeter and adjusted so as to be 1×10^6 conidia/ml with a sterilized physiological salt solution containing 0.1%(W/V) Tween 80. This solution was used as an inoculum solution. Thereafter, 0.1 ml of this solution and 0.1 ml of the dimethyl sulfoxide (DMSO) solution of the test compound were added to 9.8 ml of Sabouraud's glucose broth (SGB), and shake-cultured at 27° C. for 7 days.

Another test has as its system Rhizoctonia solani. The test is described as follows: Test for controlling effect on sheath blight of rice. It is filed as in vivo. The following applies: 120 h, 200 ppm spray, 24 hours after inoculation, rice 4-leaf stage, five days after inoculation, read-out: Controlling effect (control of disease), Sheath blight of rice. The method, then: 2-3 Test for controlling effect on sheath blight of rice (Rhizoctonia solani) Rice seedlings at the 4-leaf stage were inoculated with the mycelium of sheath blight of rice (Rhizoctonia solani). After 24 hours, a test medicine solution adjusted to 200 ppm was sprayed onto the seedlings. After air-drying, the seedlings were placed in a humid room for 24 hours where the temperature was kept at 28° C. and humidity was kept at 98%. Thereafter, the seedlings were transferred to a greenhouse, and five days after inoculation, the degree of infected area was examined. The control of disease was calculated by comparison with that in the untreated plot. The control of disease is shown as a controlling effect in the same manner as in Test Example 2-1.

The subject of test [2] is Aspergillus fumigatus TIMM 0063. The test is described as follows: In vitro antimycotic activity on Aspergillus fumigatus. It is filed as cell-based. The following applies: TIMM0063, 10 (ppm), Casitone agar, 37° C., 48 hours, read-out: Antimycotic activity (growth inhibitory rate), A.fumigatus. The method, then: 3-2 In vitro antimycotic activity on Aspergillus fumigatus.
To Aspergillus fumigatus TIMM 0063 precultured at 37° C. for 48 hours on a potato dextrose agar (PDA) slant medium was added a sterilized physiological salt solution containing 0.1%(W/V) Tween 80. After conidia were made free from the solution, the solution was filtered through a sterilized two-sheet gauze to remove the mycelium mass. The number of the conidia in the resulting suspension was counted with a globulimeter and adjusted so as to be 1×10^5 conidia/ml with a sterilized physiological salt solution containing 0.1%(W/V) Tween 80. This solution was used as an inoculum solution. Casitone agar plate medium containing the DMSO solution of the test compound in a rate of 1% (V/V) was inoculated with the inoculum solution at four places thereof with a microplanter, and cultured with the medium allowed to stand at 37° C. for 48 hours. After culture, the diameter of the mycelium disks cultivated at the four inoculated parts was measured, and its mean value was obtained. The growth inhibitory rate was calculated according to the following equation, and the antimycotic activity was shown in the same manner as in Test Example 3-1.
Growth inhibitory rate (%)=(1-W'/Y')×100
Y': Diameter of mycelium disk of DMSO control group
W': Diameter of mycelium disk of test compound group

In test [3] the test system is Pseudoperonospora cubensis. Briefly: Test for controlling effect on downy mildew of cucumber. It is filed as in vivo. Conditions: 168 h, 200 ppm spray, one day before inoculation, cucumber 2-leaf stage, read-out: Controlling effect (control of disease), Downy mildew of cucumber. The method, then:
2-2 Test for controlling effect on downy mildew of cucumber (Pseudoperonospora cubensis) A test compound adjusted to 200 ppm was sprayed onto cucumber at the 2-leaf stage cultivated in pots. After one day, the cucumber was inoculated by spraying the zoospore suspension of Pseudoperonospora cubensis. After inoculation, the cucumber was placed in a 25° C.-humid room for 1 day and then in a greenhouse for 6 days. Thus, the cucumber was made to be infected with downy mildew. The control of disease of the test compound is calculated by comparing the degree of infection of each leaf with that in the untreated plot. The control of disease is shown as a controlling effect in the same manner as in Test Example 2-1.

For test [4], the system named is Gibberella fujikuroi ("Bakanae" disease of rice). The test is described as follows: Test for rice seed-disinfecting effect. It is filed as in vivo. Conditions: Fusarium fujikuroi, 504 h, seed immersion 25° C. 24 hours, three weeks after treatment, read-out: Controlling effect (control of disease), "Bakanae" disease of rice. The procedure: 2-1 Test for rice seed-disinfecting effect
Unhulled rice infected with Gibberella fujikuroi ("Bakanae" disease of rice) was immersed in a test compound adjusted to 1000 ppm at 25° C. for 24 hours. Water was lightly swished off the seed, which was then sowed and germinated for two days. Three weeks after treatment with the solution containing the compound, the rate of the infected seedlings was examined, and the control of disease was calculated by comparison with that of the untreated plot. The control of disease was shown as a controlling effect on the basis of the following standard.

In test [5] the test system is Candida albicans IFO 1270. The test is described as follows: In vitro antimycotic activity on Candida albicans. It is filed as cell-based. Conditions: IFO1270, 10 (ppm), SGB, 37° C., 48 hours, turbidity at 650 nm, read-out: Antimycotic activity (growth inhibitory rate), C.albicans. The procedure: 3-1 In vitro antimycotic activity on Candida albicans
Candida albicans IFO 1270 pre-cultured on a Sabouraud's glucose agar (SGA) plate medium at 37° C. […] was suspended in a sterilized physiological salt solution. The number of fungi in the resulting suspension was counted with a globulimeter, and adjusted so as to be 1×10^7 cell/ml with a sterilized physiological salt solution. This solution was used as an inoculum solution. Thereafter, 0.1 ml of this solution and 0.1 ml of a dimethyl sulfoxide (DMSO) solution of the test compound were added to 9.8 ml of Sabouraud's glucose broth (SGB), and shake-cultured at 37° C. for 48 hours. After culture, the medium turbidity was measured at 650 nm, and the growth-inhibitory rate of the fungus was calculated according to the following equation.
Growth inhibitory rate (%)=(1-W/Y)×100
Y: Medium turbidity of DMSO control group
W: Medium turbidity of test compound group
From this inhibitory rate, the antimycotic activity was shown by the symbols A to D. The test results of the test compounds are shown in Table 4.

As for `CC(C)Sc1snc(OCC#CI)c1C#N` [Compound 4], in test [1], the “Antimycotic activity (degree of growth, naked eye), T.mentagrophytes” value (“Antimycotic activity” for short) was “A”. Also, the pest or weed control at 200 ppm in the test on Rhizoctonia solani fell in the range of 80 to 94%; in test [3], 95 to 100%. In addition, the inhibition of growth at 10 µg/mL in test [2] and in test [5] was 100% each time. For the same compound, the pest or weed control at 1000 ppm in test [4] fell in the range of 95 to 100%.
Turning to `CSc1snc(SCOCC#CI)c1C#N` [Compound 128, 3-(3-iodo-2-propynyloxymethylthio)-4-cyano-5-methylthioisothiazole], the “Antimycotic activity” value in test [1] was “A”. The results for the pest or weed control at 200 ppm (with Rhizoctonia solani; in test [3]) were 60 to 79% and 95 to 100%, respectively. The inhibition of growth at 10 µg/mL in test [2] and in test [5] was 100% in each case. Further, the pest or weed control at 1000 ppm in test [4] was in the range of 80 to 94%.
Consider `N#CCOc1nsc(SCOCC#CI)c1C#N` [Compound 63], for which the “Antimycotic activity” value in test [1] is reported as “A”. In addition, the pest or weed control at 200 ppm fell in the range of 80 to 94% in the test with Rhizoctonia solani and 95 to 100% in test [3]. Besides, the inhibition of growth at 10 µg/mL in test [2] and in test [5] was 100% each time. Moreover, the pest or weed control at 1000 ppm in test [4] was 95 to 100%.
In the case of `COc1nsc(SC(C)OCC#CI)c1C#N` (stereo not drawn) [Compound 125], the “Antimycotic activity” value in test [1] is “A”. Also, the pest or weed control at 200 ppm (in the test on Rhizoctonia solani; in test [3]) was 95 to 100% in each case. For the same compound, the inhibition of growth at 10 µg/mL in test [2] and in test [5] was 100% in each case. In addition, the pest or weed control at 1000 ppm in test [4] lay within 95 to 100%.
Consider `N#Cc1c(OC(F)F)nsc1OCC#CI` [Compound 50], for which the “Antimycotic activity” value in test [1] is “A”. Also, the pest or weed control at 200 ppm (with Rhizoctonia solani; in test [3]) was 95 to 100% throughout. For the same compound, the inhibition of growth at 10 µg/mL in test [2] and in test [5] was 100% each time. Also, in test [4], the pest or weed control at 1000 ppm was in the range of 95 to 100%.

(Values after patent US5578622A, “Isothiazole derivatives and their uses” (Asamura Patent Office, priority 1994, dated 1996).)
